Measured values as given in the OligoGym collection.
After the bases stand the sugars from the 5' end (letter, count) and the backbone: PS all phosphorothioate, else s phosphorothioate and o phosphodiester by linkage. Methylation of C is not given here. l = locked nucleic acid (LNA); d = 2'-deoxy (DNA)

Target: SNHG14
Settings: ASO, Human Neuronal Cell

Sequence	target mRNA inhibition (7.5 µM)	target mRNA inhibition (0.2 µM)	target mRNA inhibition (1 µM)
TTATACCTTTCTTTAACCCT (sugars ldddddddddddddldldll, PS)	58%	–	–
TTATACCTTTCTTTAACCCT (sugars ldldddldddddddddddll, PS)	64%	–	–
TTATAGCCATTCTATCT (sugars l1 d11 l2 d1 l2, PS)	40%	–	–
TTATAGCCATTCTATCT (sugars l2 d1 l1 d11 l2, PS)	62%	–	–
TTATAGCCATTCTATCT (sugars l2 d1 l2 d10 l2, PS)	64%	–	–
TTATAGCCATTCTATCT (sugars l2 d2 l1 d10 l2, PS)	64%	–	–
TTATAGCCATTCTATCT (sugars l3 d1 l1 d10 l2, PS)	65%	–	–
TTATAGCCATTCTATCT (sugars ldddlddddddldldll, PS)	5%	–	–
TTATAGCCATTCTATCT (sugars ldddlddddddldllll, PS)	26%	–	–
TTATAGCCATTCTATCT (sugars lddllddddddldddll, PS)	50%	–	–
TTATAGCCATTCTATCT (sugars ldldddddddddlldll, PS)	45%	–	–
TTATAGCCATTCTATCT (sugars ldlddddddddlddlll, PS)	57%	–	–
TTATAGCCATTCTATCT (sugars llddlddddddlddlll, PS)	39%	–	–
TTATAGCCATTCTATCT (sugars llddlddddddldldll, PS)	5%	–	–
TTATCATTTCATATTACT (sugars l4 d12 l2, PS)	–	16%	34%
TTATTTATACACCATC (sugars l2 d10 l4, PS)	–	78%	74%
TTATTTCCATTTATTTTCA (sugars ldlldddddddddlddlll, PS)	68%	–	–
TTATTTCCATTTATTTTCA (sugars llddlddddddddldldll, PS)	66%	–	–
TTCAACCCTAATCACT (sugars l4 d10 l2, PS)	–	39%	50%
TTCACCAGTATTTCTTC (sugars l4 d11 l2, PS)	–	36%	32%

Sequence	target mRNA inhibition (7.5 µM)	target mRNA inhibition (0.2 µM)	target mRNA inhibition (1 µM)
TTCAGCTTTTAACCAGAGT (sugars l2 d14 l3, PS)	73%	–	–
TTCCATTTATTTCCATTTAT (sugars ldldddldddddddldddll, PS)	56%	–	–
TTCCATTTATTTCCATTTAT (sugars ldlddlddddddddldldll, PS)	63%	–	–
TTCTACTATACTTTCCTCT (sugars l1 d14 l1 d1 l2, PS)	50%	–	–
TTCTACTATACTTTCCTCT (sugars lddddlddddddddlddll, PS)	57%	–	–
TTCTACTATACTTTCCTCT (sugars ldddlddddddddddldll, PS)	53%	–	–
TTCTACTATACTTTCCTCT (sugars ldlddddddddddddldll, PS)	63%	–	–
TTCTACTATACTTTCCTCT (sugars ldldddddddddddlddll, PS)	59%	–	–
TTCTGTATACACCATCC (sugars l1 d1 l1 d12 l2, PS)	62%	–	–
TTCTGTATACACCATCC (sugars l1 d12 l1 d1 l2, PS)	62%	–	–
TTCTGTATACACCATCC (sugars l1 d14 l2, PS)	46%	–	–
TTCTGTATACACCATCC (sugars l3 d12 l2, PS)	58%	–	–
TTCTGTATACACCATCC (sugars ldddlddddddddldll, PS)	65%	–	–
TTCTGTATACACCATCC (sugars lddlddddddddlddll, PS)	60%	–	–
TTCTGTATACACCATCCC (sugars l1 d11 l1 d3 l2, PS)	54%	–	–
TTCTGTATACACCATCCC (sugars l1 d15 l2, PS)	58%	–	–
TTCTTGTTTATCCCAA (sugars l2 d10 l4, PS)	–	67%	71%
TTGATTCAATTCCCTTA (sugars l2 d10 l1 d1 l3, PS)	68%	–	–
TTGATTCAATTCCCTTA (sugars l2 d11 l1 d1 l2, PS)	60%	–	–
